Laboratory results as given in ChEMBL document CHEMBL1201862, “PubChem BioAssay data set” (2004).
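Following 48 hours of exposure in 96-well plates, responses at five concentrations were used to interpolate endpoints linearly. GI50 = concentration required for 50% inhibition of growth.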 The source made the active and inactive calls. Cut-off read from the data, not from the text of the source: active = GI50 up to about 1.1 µM and inactive = higher.

Key:
Assay in all cases: growth of human tumour cells (NCI), 48 h
HT-29 = system: HT-29
NCI-H226 = system: NCI-H226
HL-60 = system: HL-60
SK-OV-3 = system: SK-OV-3
DU-145 = system: DU-145
HCT-15 = system: HCT-15
SNB-19 = system: SNB-19
SF-295 = system: SF-295
SF-539 = system: SF-539
SR = system: SR
SW-620 = system: SW-620
NCI/ADR-RES = system: NCI/ADR-RES
RXF 393 = system: RXF 393
Hs-578T = system: Hs-578T
786-0 = system: 786-0
SK-MEL-2 = system: SK-MEL-2
Malme-3M = system: Malme-3M
UO-31 = system: UO-31
COLO 205 = system: COLO 205

SMILES	GI50 (HT-29)	GI50 (NCI-H226)	GI50 (HL-60)	GI50 (SK-OV-3)	GI50 (DU-145)	GI50 (HCT-15) [µM]	GI50 (SNB-19)	GI50 (SF-295)	GI50 (SF-539)	GI50 (SR)	GI50 (SW-620)	GI50 (NCI/ADR-RES)	GI50 (RXF 393)	GI50 (Hs-578T)	GI50 (786-0)	GI50 (SK-MEL-2)	GI50 (Malme-3M)	GI50 (UO-31)	GI50 (COLO 205)
CN(N=O)N1C(=O)SCC(c2ccccc2)(c2ccccc2)C1=O	33.3 µM (inactive)	14 µM (inactive)	46.1 µM (inactive)	25.2 µM (inactive)	91 µM (inactive)	41.7	57.9 µM (inactive)	35.6 µM (inactive)	21.9 µM (inactive)	37.5 µM (inactive)	38.7 µM (inactive)	34.4 µM (inactive)	22.3 µM (inactive)	56.8 µM (inactive)	46.6 µM (inactive)	18.9 µM (inactive)	34.1 µM (inactive)	25.8 µM (inactive)	25.3 µM (inactive)
CCOC(=O)c1ccc(C(=O)OCC)n1-c1cc2cc(c1)CSCc1cc(cc(-n3c(C(=O)OCC)ccc3C(=O)OCC)c1)CSC2	> 10 µM (inactive)	> 10 µM (inactive)	> 10 µM (inactive)	> 10 µM (inactive)	> 10 µM (inactive)	> 10	> 10 µM (inactive)	> 10 µM (inactive)	> 10 µM (inactive)	> 10 µM (inactive)	> 10 µM (inactive)	> 10 µM (inactive)	> 10 µM (inactive)	> 10 µM (inactive)	> 10 µM (inactive)	> 10 µM (inactive)	> 10 µM (inactive)	> 10 µM (inactive)	> 10 µM (inactive)
CC(C)c1cc(C(C)C)c(P2(=O)CC3C(Cl)(Cl)C3(C)C2)c(C(C)C)c1 (centres undefined)	9.33 µM (inactive)	16.7 µM (inactive)	4.2 µM (inactive)	16.4 µM (inactive)	14.5 µM (inactive)	9.53	7.91 µM (inactive)	7.31 µM (inactive)	14 µM (inactive)	1.74 µM (inactive)	7.55 µM (inactive)	6.04 µM (inactive)	12.9 µM (inactive)	17.3 µM (inactive)	6.22 µM (inactive)	11.3 µM (inactive)	17.5 µM (inactive)	1.86 µM (inactive)	11.7 µM (inactive)
C=CC1=C(C)c2cc3[nH]c(c4c5nc(cc6[nH]c(cc1n2)c(C=O)c6CC)C(C)=C5C(=O)[C@@H]4C(=O)OC)[C@@H](CCC(=O)O)[C@@H]3C	> 100 µM (inactive)	> 100 µM (inactive)	42.6 µM (inactive)	> 100 µM (inactive)	13.4 µM (inactive)	35.6	> 100 µM (inactive)	45 µM (inactive)	39.6 µM (inactive)	10 µM (inactive)	66.5 µM (inactive)	> 100 µM (inactive)	1.79 µM (inactive)	> 100 µM (inactive)	> 100 µM (inactive)	> 100 µM (inactive)	> 100 µM (inactive)	32.7 µM (inactive)	95.7 µM (inactive)
Cc1ccc(C(=O)/C=C(\O)C(=O)NN=C(c2ccccc2)c2ccccc2)cc1	> 100 µM (inactive)	> 100 µM (inactive)	13.9 µM (inactive)	> 100 µM (inactive)	> 100 µM (inactive)	39	58.9 µM (inactive)	66.8 µM (inactive)	> 100 µM (inactive)	27.2 µM (inactive)	50.5 µM (inactive)	30.5 µM (inactive)	> 100 µM (inactive)	56.9 µM (inactive)	28.4 µM (inactive)	> 100 µM (inactive)	> 100 µM (inactive)	55.6 µM (inactive)	40.4 µM (inactive)
COC(=O)C1=C(C)NC(C)=C([N+](=O)[O-])C1c1cccc(NO)c1 (centres undefined)	2.86 µM (inactive)	7.28 µM (inactive)	2.8 µM (inactive)	7.38 µM (inactive)	6.67 µM (inactive)	2.84	6.65 µM (inactive)	3.79 µM (inactive)	6.11 µM (inactive)	2.53 µM (inactive)	4.17 µM (inactive)	4.16 µM (inactive)	6.5 µM (inactive)	2.84 µM (inactive)	4.48 µM (inactive)	11.2 µM (inactive)	4.31 µM (inactive)	2.96 µM (inactive)	2.06 µM (inactive)
